Tested on: LZ+HFD-induced PCOS model
Assay: Pharmacodynamic experiment of mulberry extract on LZ+HFD-induced PCOS model (Experimental Example 11, incl. expanded scale)
Assay type: in vivo, SD rats
Conditions: Met. 125 mg/kg/d, expanded scale 18 rats/group, monitored 10 days from day 10 of treatment; model group 97%, blank about 59%
Experimental: Test methods for the hormones are as follows: • E2: estradiol radioimmunoassay KIT—HTA Co., Ltd. (SFDA approval No.: 520033010); • LH: Iodine[^125I] Human Luteinizing Hormone Radioimmunoassay Kit (SFDA approval No.: 510950161); • PRL: Iodine[^125I] Prolactin Radioimmunoassay Kit (SFDA approval No.: S10950161); • T: Iodine[^125I] Testosterone Radioimmunoassay Kit (SFDA approval No.: S10940093); • ADP, GnRH, SHBG, and AMH in serum of each animal were tested using Elisa kits; • P: Progesterone Radioimmunoassay Kit—Union Medical & Pharmaceutical Technology (Tianjin) Co., Ltd. (SFDA approval No.: S10950202).
The drugs were formulated as same as in Experimental Example 10.
Eighteen 3-week-old female SD rats with good health and shiny fur were selected and adaptively fed for 3 days, and then randomized into a blank group, a model group, and a dosing group. After fed with high-fat diets for 3 weeks, the rats in the model group and the dosing group were administered with LZ (1 mg/kg/d) via gavage for 6 weeks, while being fed with HFD (high-fat diets (research diets D12492)), and the PCOS rat models were constructed. After the models were evaluated as success, the rats in the dosing group were administered according to the dosage and mode listed in the table, during which an equal amount of normal saline was given to the blank group and the model group. […]

CN(C)C(=N)N=C(N)N [Met., Metformin]
share of diestrus/metestrus in the estrous cycle: 74%

— patent US12533385B2, “Use of mulberry twig alkaloids in preparation of drug for treating polycystic ovarian syndrome” (priority 2022, dated 2026)
